Results as given in ChEMBL document CHEMBL5729509, “Compounds and compositions for the treatment of neurodegenerative and inflammatory diseases” (2023).

Columns and labels:
Kallikrein-1 = Kallikrein-1 (Homo sapiens, UniProt P06870); assay: Inhibitory Effect on the Enzymatic Activity of KLK: Table 4: The molecules were tested in order to evaluate their possible inhibitory effect on the enzymatic activity of KLK1. The % inhibitions were determined from the residual activity of the hydrolysis of the Boc-PFR-AMC fluorogenic substrate (100 μM) by KLK1 (1.6 nM) after 15 minutes of incubation at 37° C. with each molecule at 10 μM.
Plasminogen [1] = target: T1, Plasminogen (Homo sapiens, UniProt P00747); assay: Activities on Plasmin (Boc-QAR-AMC): In a typical test, 100 μl of reaction medium contains the buffer, 1 μl of recombinant enzyme, 1 μl of substrate (Boc-QAR-AMC) and 1 μl of the compound tested at 10 μM (in the control, 1 μl of DMSO). In each well, the inhibitor is deposited in the presence of the enzyme-buffer mixture for preincubation for 15 minutes at 37° C. The enzymatic reaction is then …
Description: Activities on Plasmin (Boc-QAR-AMC): In a typical test, 100 μl of reaction medium contains the buffer, 1 μl of recombinant enzyme, 1 μl of substrate (Boc-QAR-AMC) and 1 μl of the compound tested at 10 μM (in the control, 1 μl of DMSO). In each well, the inhibitor is deposited in the presence of the enzyme-buffer mixture for preincubation for 15 minutes at 37° C. The enzymatic reaction is then triggered by adding the buffer-substrate mixture (100 μM). The release of the 7-amino-4-methylcoumarin fluorescent group (AMC, λex=360 nm, λem=460 nm) following the hydrolysis of the substrate catalyzed by the enzyme is monitored for 30 minutes at 37° C. using a FLUOstar spectrofluorimeter.

Plasminogen [2] = target: T1, Plasminogen; assay: Activities on Plasmin (PAR4): In a typical test, 100 μl of reaction medium contains the buffer, 1 μl of recombinant enzyme, 1 μl of substrate (PAR4) and 1 μl of the compound tested at 10 μM (in the control, 1 μl of DMSO). In each well, the inhibitor is deposited in the presence of the enzyme-buffer mixture for preincubation for 15 minutes at 37° C. The enzymatic reaction is then triggered by …
Description: Activities on Plasmin (PAR4): In a typical test, 100 μl of reaction medium contains the buffer, 1 μl of recombinant enzyme, 1 μl of substrate (PAR4) and 1 μl of the compound tested at 10 μM (in the control, 1 μl of DMSO). In each well, the inhibitor is deposited in the presence of the enzyme-buffer mixture for preincubation for 15 minutes at 37° C. The enzymatic reaction is then triggered by adding the buffer-substrate mixture (100 μM). The release of the 7-amino-4-methylcoumarin fluorescent group (AMC, λex=360 nm, λem=460 nm) following the hydrolysis of the substrate catalyzed by the enzyme is monitored for 30 minutes at 37° C. using a FLUOstar spectrofluorimeter.

Kallikrein-6 [3] = target: T2, Kallikrein-6 (Homo sapiens, UniProt Q92876); assay: Activities on KLK6 (PAR2): In a typical test, 100 μl of reaction medium contains the buffer, 1 μl of recombinant enzyme, 1 μl of substrate (PAR2) and 1 μl of the compound tested at 10 μM (in the control, 1 μl of DMSO). In each well, the inhibitor is deposited in the presence of the enzyme-buffer mixture for preincubation for 15 minutes at 37° C. The enzymatic reaction is then triggered by adding …
Description: Activities on KLK6 (PAR2): In a typical test, 100 μl of reaction medium contains the buffer, 1 μl of recombinant enzyme, 1 μl of substrate (PAR2) and 1 μl of the compound tested at 10 μM (in the control, 1 μl of DMSO). In each well, the inhibitor is deposited in the presence of the enzyme-buffer mixture for preincubation for 15 minutes at 37° C. The enzymatic reaction is then triggered by adding the buffer-substrate mixture (100 μM). The release of the 7-amino-4-methylcoumarin fluorescent group (AMC, λex=360 nm, λem=460 nm) following the hydrolysis of the substrate catalyzed by the enzyme is monitored for 30 minutes at 37° C. using a FLUOstar spectrofluorimeter.

Kallikrein-6 [4] = target: T2, Kallikrein-6; assay: Activities on KLK6 (Boc-QAR-AMC): In a typical test, 100 μl of reaction medium contains the buffer, 1 μl of recombinant enzyme, 1 μl of substrate (Boc-QAR-AMC) and 1 μl of the compound tested at 10 μM (in the control, 1 μl of DMSO). In each well, the inhibitor is deposited in the presence of the enzyme-buffer mixture for preincubation for 15 minutes at 37° C. The enzymatic reaction is then …
Description: Activities on KLK6 (Boc-QAR-AMC): In a typical test, 100 μl of reaction medium contains the buffer, 1 μl of recombinant enzyme, 1 μl of substrate (Boc-QAR-AMC) and 1 μl of the compound tested at 10 μM (in the control, 1 μl of DMSO). In each well, the inhibitor is deposited in the presence of the enzyme-buffer mixture for preincubation for 15 minutes at 37° C. The enzymatic reaction is then triggered by adding the buffer-substrate mixture (100 μM). The release of the 7-amino-4-methylcoumarin fluorescent group (AMC, λex=360 nm, λem=460 nm) following the hydrolysis of the substrate catalyzed by the enzyme is monitored for 30 minutes at 37° C. using a FLUOstar spectrofluorimeter.

Kallikrein-6 [5] = target: T2, Kallikrein-6; assay: Activities on KLK6 (MBP3): In a typical test, 100 μl of reaction medium contains the buffer, 1 μl of recombinant enzyme, 1 μl of substrate (MBP3) and 1 μl of the compound tested at 10 μM (in the control, 1 μl of DMSO). In each well, the inhibitor is deposited in the presence of the enzyme-buffer mixture for preincubation for 15 minutes at 37° C. The enzymatic reaction is then triggered by adding …
Description: Activities on KLK6 (MBP3): In a typical test, 100 μl of reaction medium contains the buffer, 1 μl of recombinant enzyme, 1 μl of substrate (MBP3) and 1 μl of the compound tested at 10 μM (in the control, 1 μl of DMSO). In each well, the inhibitor is deposited in the presence of the enzyme-buffer mixture for preincubation for 15 minutes at 37° C. The enzymatic reaction is then triggered by adding the buffer-substrate mixture (100 μM). The release of the 7-amino-4-methylcoumarin fluorescent group (AMC, λex=360 nm, λem=460 nm) following the hydrolysis of the substrate catalyzed by the enzyme is monitored for 30 minutes at 37° C. using a FLUOstar spectrofluorimeter.

T1 sequence (P00747 97-580 limits assumed): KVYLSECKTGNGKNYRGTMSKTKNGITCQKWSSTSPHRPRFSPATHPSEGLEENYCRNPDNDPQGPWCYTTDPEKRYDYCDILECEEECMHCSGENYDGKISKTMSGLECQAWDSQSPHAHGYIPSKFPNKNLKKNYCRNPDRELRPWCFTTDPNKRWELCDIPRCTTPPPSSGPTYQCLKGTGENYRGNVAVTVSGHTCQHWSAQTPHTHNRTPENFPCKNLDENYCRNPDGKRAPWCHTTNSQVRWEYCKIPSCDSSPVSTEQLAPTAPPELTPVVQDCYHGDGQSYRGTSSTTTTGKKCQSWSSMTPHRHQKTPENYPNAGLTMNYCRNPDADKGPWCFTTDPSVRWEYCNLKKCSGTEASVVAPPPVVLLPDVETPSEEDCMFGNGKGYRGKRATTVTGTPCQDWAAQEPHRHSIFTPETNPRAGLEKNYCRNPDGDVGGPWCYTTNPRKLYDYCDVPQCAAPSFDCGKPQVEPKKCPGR
T1 sequence (P00747 581-810 limits assumed): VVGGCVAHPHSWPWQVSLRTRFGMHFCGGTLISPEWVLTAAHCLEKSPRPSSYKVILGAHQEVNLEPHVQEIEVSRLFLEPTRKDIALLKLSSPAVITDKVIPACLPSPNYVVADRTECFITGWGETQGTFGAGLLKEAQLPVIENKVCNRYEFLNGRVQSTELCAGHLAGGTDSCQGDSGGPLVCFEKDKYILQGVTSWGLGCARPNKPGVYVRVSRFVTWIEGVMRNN
Sequence of Kallikrein-1 (P06870 whole entry): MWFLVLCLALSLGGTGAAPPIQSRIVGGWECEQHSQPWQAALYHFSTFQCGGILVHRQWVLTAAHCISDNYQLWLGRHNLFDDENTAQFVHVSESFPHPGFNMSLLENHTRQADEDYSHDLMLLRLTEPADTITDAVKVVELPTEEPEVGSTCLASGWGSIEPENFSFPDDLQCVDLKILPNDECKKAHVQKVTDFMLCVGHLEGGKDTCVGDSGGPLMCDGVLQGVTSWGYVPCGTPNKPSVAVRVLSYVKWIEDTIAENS

Structure (SMILES) | IC50 (Kallikrein-1) [µM] | IC50 (Plasminogen [1]) [µM] | IC50 (Plasminogen [2]) [µM] | IC50 (Kallikrein-6 [3]) [µM] | IC50 (Kallikrein-6 [4]) [µM] | Ki (Kallikrein-6 [4]) [µM] | Ki (Plasminogen [1]) [µM] | IC50 (Kallikrein-6 [5]) [µM]
NCc1ccc(NC(=O)c2ccc3ccccc3c2O)cc1 | – | – | 4.92 | 2.63 | 1.5 | 2.26 | – | 7.89
CC(C)c1ccc(C(=O)Nc2ccc(CN)cc2)c(O)c1 | – | – | – | – | 1.56 | 1.75 | 0.67 | –

Other lines, results leading:

IC50 (Kallikrein-1) [µM] | IC50 (Plasminogen [1]) [µM] | IC50 (Plasminogen [2]) [µM] | IC50 (Kallikrein-6 [3]) [µM] | IC50 (Kallikrein-6 [4]) [µM] | Ki (Kallikrein-6 [4]) [µM] | Ki (Plasminogen [1]) [µM] | IC50 (Kallikrein-6 [5]) [µM] | Structure (SMILES)
5.9 | 3.75 | 3.25 | – | – | – | – | – | NCc1ccc(NC(=O)c2cc3ccccc3cc2O)cc1
39.3 | 12.5 | – | 5.06 | 5.42 | 1.92 | 4.66 | 8.34 | Cc1ccc(C(=O)Nc2ccc(CN)cc2)c(O)c1
30.7 | 2.72 | – | – | – | – | 2.16 | – | COc1ccc2c(O)c(C(=O)Nc3ccc(CN)cc3)ccc2c1
